Test results taken from patent publication US6355620B1, “C-2 modified erythromycin derivatives” (Abbott Laboratories, priority 1999, dated 2002).

Legend:
Test in all cases: In vitro antibacterial activity, agar dilution MIC
Assay type in all cases: cell-based
[1] = system: Streptococcus Pneumonia 5979; conditions: code ZZ, BHI agar, 35-37° C., 20 to 24 hours, unit assumed
Procedure: (§1) Representative compounds of the present invention were assayed in vitro for antibacterial activity as follows: Twelve petri dishes containing successive aqueous dilutions of the test compound mixed with 10 mL of sterilized Brain Heart Infusion (BHI) agar (Difco 0418-01-5) were prepared. Each plate was inoculated with 1:100 (or 1:10 for slow-growing strains, such as Micrococcus and Streptococcus) dilutions of up to 32 different microorganisms, using a Steers replicator block. The inoculated plates were incubated at 35-37° C. for 20 to 24 hours. In addition, a control plate, using BHI agar containing no test compound, was prepared and incubated at the beginning and end of each test.
(§2) An additional plate containing a compound having known susceptibility patterns for the organisms being tested and belonging to the same antibiotic class as the test compound was also prepared and incubated as a further control, as well as to provide test-to-test comparability.
(§3) After incubation, each plate was visually inspected. The minimum inhibitory concentration (MIC) was defined as the lowest concentration of drug yielding no growth, a slight haze, or sparsely isolated colonies on the inoculum spot as compared to the growth control.

[2] = system: Streptococcus pyogenes PIU 2548; conditions: code NN, BHI agar, 35-37° C., 20 to 24 hours, unit assumed
Procedure: as §1, §2, §3

[3] = system: Streptococcus Pneumonia ATCC 6303; conditions: code XX, BHI agar, 35-37° C., 20 to 24 hours, unit assumed
Procedure: as §1, §2, §3

[4] = system: Nocardia Asteroides ATCC 99700; conditions: code VV, BHI agar, 35-37° C., 20 to 24 hours, unit assumed
Procedure: as §1, §2, §3

[5] = system: Staphylococcus aureus NCTC 10649M; conditions: code EE, BHI agar, 35-37° C., 20 to 24 hours, unit assumed
Procedure: as §1, §2, §3

[6] = system: Staphylococcus epidermidis 3519; conditions: code HH, BHI agar, 35-37° C., 20 to 24 hours, unit assumed
Procedure: as §1, §2, §3

Candida albicans CCH 442 = conditions: code TT, BHI agar, 35-37° C., 20 to 24 hours, unit assumed
Procedure: as §1, §2, §3

Escherichiacoli DC-2 = conditions: code SS, BHI agar, 35-37° C., 20 to 24 hours, unit assumed
Procedure: as §1, §2, §3

[7] = system: Staphylococcus aureus 1775; conditions: code GG, BHI agar, 35-37° C., 20 to 24 hours, unit assumed
Procedure: as §1, §2, §3

[8] = system: Haemophilislnfluenzae DILL AMP R; conditions: code WW, BHI agar, 35-37° C., 20 to 24 hours, unit assumed
Procedure: as §1, §2, §3

Escherichiacoli SS = conditions: code RR, BHI agar, 35-37° C., 20 to 24 hours, unit assumed
Procedure: as §1, §2, §3

[9] = system: Staphylococcus aureus A-5177; conditions: code BB, BHI agar, 35-37° C., 20 to 24 hours, unit assumed
Procedure: as §1, §2, §3

[10] = system: Staphylococcus aureus CMX 553; conditions: code FF, BHI agar, 35-37° C., 20 to 24 hours, unit assumed
Procedure: as §1, §2, §3

[11] = system: Staphylococcus aureus ATCC 6538P; conditions: code AA, BHI agar, 35-37° C., 20 to 24 hours, unit assumed
Procedure: as §1, §2, §3

[12] = system: Streptococcus pyogenes EES61; conditions: code LL, BHI agar, 35-37° C., 20 to 24 hours, unit assumed
Procedure: as §1, §2, §3

[13] = system: Mycobacterium smegmatis ATCC 114; conditions: code UU, BHI agar, 35-37° C., 20 to 24 hours, unit assumed
Procedure: as §1, §2, §3

[14] = system: Streptococcus Pneumonia 5649; conditions: code ZZA, BHI agar, 35-37° C., 20 to 24 hours, unit assumed
Procedure: as §1, §2, §3

[15] = system: Micrococcusluteus ATCC 9341; conditions: code OO, BHI agar, 35-37° C., 20 to 24 hours, unit assumed
Procedure: as §1, §2, §3

[16] = system: Micrococcusluteus ATCC 4698; conditions: code PP, BHI agar, 35-37° C., 20 to 24 hours, unit assumed
Procedure: as §1, §2, §3

[17] = system: Streptococcus pyogenes 930; conditions: code MM, BHI agar, 35-37° C., 20 to 24 hours, unit assumed
Procedure: as §1, §2, §3

[18] = system: Staphylococcus aureus CMX 642A; conditions: code DD, BHI agar, 35-37° C., 20 to 24 hours, unit assumed
Procedure: as §1, §2, §3

[19] = system: Staphylococcus aureus A-5278; conditions: code CC, BHI agar, 35-37° C., 20 to 24 hours, unit assumed
Procedure: as §1, §2, §3

[20] = system: Streptococcus agalactiae CMX 508; conditions: code KK, BHI agar, 35-37° C., 20 to 24 hours, unit assumed
Procedure: as §1, §2, §3

[21] = system: Enterococcusfaecium ATCC X043; conditions: code II, BHI agar, 35-37° C., 20 to 24 hours, unit assumed
Procedure: as §1, §2, §3

[22] = system: Streptococcus bovis A-5169; conditions: code JJ, BHI agar, 35-37° C., 20 to 24 hours, unit assumed
Procedure: as §1, §2, §3

Escherichiacoli JUHL = conditions: code QQ, BHI agar, 35-37° C., 20 to 24 hours, unit assumed
Procedure: as §1, §2, §3

[23] = system: Streptococcus Pneumonia GYR 1171; conditions: code YY, BHI agar, 35-37° C., 20 to 24 hours, unit assumed
Procedure: as §1, §2, §3

SMILES	Antibacterial Activity (MIC) [2] [µg/mL]	Antibacterial Activity (MIC) [3] [µg/mL]	Antibacterial Activity (MIC) [4] [µg/mL]	Antibacterial Activity (MIC) [5] [µg/mL]	Antibacterial Activity (MIC) [6] [µg/mL]	Antibacterial Activity (MIC) (Candida albicans CCH 442) [µg/mL]	Antibacterial Activity (MIC) (Escherichiacoli DC-2) [µg/mL]	Antibacterial Activity (MIC) [7] [µg/mL]	Antibacterial Activity (MIC) [8] [µg/mL]	Antibacterial Activity (MIC) (Escherichiacoli SS) [µg/mL]	Antibacterial Activity (MIC) [9] [µg/mL]	Antibacterial Activity (MIC) [10] [µg/mL]	Antibacterial Activity (MIC) [11] [µg/mL]	Antibacterial Activity (MIC) [12] [µg/mL]	Antibacterial Activity (MIC) [13] [µg/mL]	Antibacterial Activity (MIC) [14] [µg/mL]	Antibacterial Activity (MIC) [15] [µg/mL]	Antibacterial Activity (MIC) [16] [µg/mL]	Antibacterial Activity (MIC) [17] [µg/mL]	Antibacterial Activity (MIC) [18] [µg/mL]	further results
CCC1OC(=O)C(C)(O)C(=O)C(C)C(OC2OC(C)CC(N(C)C)C2O)C(C)(OCC(O)CO)CC(C)C(=O)C(C)C2NC(=O)OC12C (centres unmarked) [Example 3, Compound of formula (II): R^a is —CH2CH(OH)CH2OH, R^b is H, Y and Z together are O, T is —NH—, R is —OH]	> 100	64	> 100	> 100	> 100	> 100	> 100	> 100	> 128	100	> 100	> 100	> 100	100	> 100	> 128	50	> 100	> 100	> 100	Antibacterial Activity (MIC) [1]: > 128 µg/mL; Antibacterial Activity (MIC) [19]: > 100 µg/mL; Antibacterial Activity (MIC) [20]: 50 µg/mL; Antibacterial Activity (MIC) [21]: 100 µg/mL; Antibacterial Activity (MIC) [22]: 50 µg/mL; Antibacterial Activity (MIC) (Escherichiacoli JUHL): > 100 µg/mL; Antibacterial Activity (MIC) [23]: 32 µg/mL
C#CCOC1(C)CC(C)C(=O)C(C)C2NC(=O)OC2(C)C(CC)OC(=O)C(C)(CC=Cc2ccccc2)C(=O)C(C)C1OC1OC(C)CC(N(C)C)C1O (centres unmarked) [Example 9, Compound of formula (II): R^a is —CH2C═CH, R^b is H, Y and Z together are O, T is —NH—, R is —CH2CH═CH-(phenyl)]	3.1	1	1.56	12.5	6.2	> 100	> 100	> 100	> 64	6.2	3.1	3.1	3.1	1.56	12.5	8	1.56	3.1	50	3.1	Antibacterial Activity (MIC) [1]: 64 µg/mL; Antibacterial Activity (MIC) [19]: > 100 µg/mL; Antibacterial Activity (MIC) [20]: 1.56 µg/mL; Antibacterial Activity (MIC) [21]: 3.1 µg/mL; Antibacterial Activity (MIC) [22]: 0.78 µg/mL; Antibacterial Activity (MIC) (Escherichiacoli JUHL): > 100 µg/mL; Antibacterial Activity (MIC) [23]: 1 µg/mL
CCC1OC(=O)C(C)(O)C(=O)C(C)C(OC2OC(C)CC(N(C)C)C2O)C(C)(OCC=Cc2cnc3ccccc3c2)CC(C)C(=O)C(C)C2NC(=O)OC12C (centres unmarked) [Example 8, Compound of formula (II): R^a is —CH2CH═CH-(3-quinolinyl), R^b is H, Y and Z together are O, T is —NH—, R is —OH]	0.39	0.03	0.39	0.78	0.39	> 100	> 100	> 100	16	0.2	0.39	0.78	0.39	0.02	3.1	0.5	0.02	0.2	50	0.39	Antibacterial Activity (MIC) [1]: 128 µg/mL; Antibacterial Activity (MIC) [19]: > 100 µg/mL; Antibacterial Activity (MIC) [20]: 0.01 µg/mL; Antibacterial Activity (MIC) [21]: 0.2 µg/mL; Antibacterial Activity (MIC) [22]: 0.02 µg/mL; Antibacterial Activity (MIC) (Escherichiacoli JUHL): > 100 µg/mL; Antibacterial Activity (MIC) [23]: 0.03 µg/mL
CC[C@H]1OC(=O)[C@H](C)[C@@H](O[C@H]2C[C@@](C)(OC)[C@@H](O)[C@H](C)O2)[C@H](C)[C@@H](O[C@@H]2O[C@H](C)C[C@H](N(C)C)[C@H]2O)[C@](C)(O)C[C@@H](C)C(=O)[C@H](C)[C@@H](O)[C@]1(C)O [Ery. A standard, Erythromycin A, reference compound]	6.2	0.06	0.1	0.39	0.39	> 100	> 100	> 100	4	0.78	3.1	0.39	0.2	0.05	3.1	16	0.05	0.2	> 100	0.39	Antibacterial Activity (MIC) [19]: > 100 µg/mL; Antibacterial Activity (MIC) [20]: 0.05 µg/mL; Antibacterial Activity (MIC) [21]: 0.05 µg/mL; Antibacterial Activity (MIC) [22]: 0.02 µg/mL; Antibacterial Activity (MIC) (Escherichiacoli JUHL): > 100 µg/mL; Antibacterial Activity (MIC) [23]: 0.06 µg/mL
